Activity calls are given as the source filed them.
Experiments:
[1] = viability of uninfected HEp-2 cells – cell-based, HTS, cytotoxicity control for RSV inhibitor project, dose response (AID 2410); assay type: functional; conditions: human respiratory syncytial virus
Caspase-3 [2] = biological target: T1, Caspase-3 (Homo sapiens, UniProt P42574); assay type: functional
T1 sequence (P42574 whole entry): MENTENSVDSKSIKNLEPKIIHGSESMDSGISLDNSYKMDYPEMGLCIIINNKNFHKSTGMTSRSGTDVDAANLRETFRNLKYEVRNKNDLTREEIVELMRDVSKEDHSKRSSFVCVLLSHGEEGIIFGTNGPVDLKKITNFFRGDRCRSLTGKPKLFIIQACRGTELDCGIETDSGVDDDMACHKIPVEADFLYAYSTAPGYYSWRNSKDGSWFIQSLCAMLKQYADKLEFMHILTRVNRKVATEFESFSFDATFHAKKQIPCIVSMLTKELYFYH

[3] = biological target: T2, Sentrin-specific protease 7 (Homo sapiens, UniProt Q9BQF6); assay type: functional;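 note: Luminescence-based dose-response confirmation of ultra-high-throughput screening hits, measuring inhibition of SENP7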
T2 sequence (Q9BQF6 whole entry): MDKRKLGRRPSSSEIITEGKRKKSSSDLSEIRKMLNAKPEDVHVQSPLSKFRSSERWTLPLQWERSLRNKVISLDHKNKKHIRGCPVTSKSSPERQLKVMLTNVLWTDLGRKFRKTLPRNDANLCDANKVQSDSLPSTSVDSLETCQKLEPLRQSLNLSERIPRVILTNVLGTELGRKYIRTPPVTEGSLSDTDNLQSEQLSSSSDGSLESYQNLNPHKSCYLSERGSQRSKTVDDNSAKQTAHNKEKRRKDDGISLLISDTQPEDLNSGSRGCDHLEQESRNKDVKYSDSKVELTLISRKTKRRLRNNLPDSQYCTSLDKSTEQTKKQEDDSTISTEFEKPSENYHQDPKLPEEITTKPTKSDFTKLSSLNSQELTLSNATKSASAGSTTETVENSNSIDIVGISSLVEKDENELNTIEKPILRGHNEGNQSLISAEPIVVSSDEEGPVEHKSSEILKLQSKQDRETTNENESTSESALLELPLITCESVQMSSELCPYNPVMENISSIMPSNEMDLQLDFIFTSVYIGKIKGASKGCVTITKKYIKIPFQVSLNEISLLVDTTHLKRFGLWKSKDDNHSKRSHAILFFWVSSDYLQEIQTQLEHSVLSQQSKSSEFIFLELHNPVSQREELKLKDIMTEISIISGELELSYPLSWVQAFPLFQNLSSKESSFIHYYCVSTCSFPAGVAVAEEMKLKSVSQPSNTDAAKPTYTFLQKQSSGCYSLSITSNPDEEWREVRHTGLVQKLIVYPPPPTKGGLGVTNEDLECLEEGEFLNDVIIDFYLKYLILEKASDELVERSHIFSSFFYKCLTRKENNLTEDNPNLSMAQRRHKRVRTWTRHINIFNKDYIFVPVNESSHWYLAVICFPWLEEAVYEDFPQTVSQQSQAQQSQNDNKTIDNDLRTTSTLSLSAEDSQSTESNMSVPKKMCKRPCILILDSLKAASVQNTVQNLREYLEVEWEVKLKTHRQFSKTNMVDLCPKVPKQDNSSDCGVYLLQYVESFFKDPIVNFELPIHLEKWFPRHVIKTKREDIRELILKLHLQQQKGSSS

[4] = biological target: T3, Sentrin-specific protease 6 (Homo sapiens, UniProt Q9GZR1); assay type: functional
T3 sequence (Q9GZR1 whole entry): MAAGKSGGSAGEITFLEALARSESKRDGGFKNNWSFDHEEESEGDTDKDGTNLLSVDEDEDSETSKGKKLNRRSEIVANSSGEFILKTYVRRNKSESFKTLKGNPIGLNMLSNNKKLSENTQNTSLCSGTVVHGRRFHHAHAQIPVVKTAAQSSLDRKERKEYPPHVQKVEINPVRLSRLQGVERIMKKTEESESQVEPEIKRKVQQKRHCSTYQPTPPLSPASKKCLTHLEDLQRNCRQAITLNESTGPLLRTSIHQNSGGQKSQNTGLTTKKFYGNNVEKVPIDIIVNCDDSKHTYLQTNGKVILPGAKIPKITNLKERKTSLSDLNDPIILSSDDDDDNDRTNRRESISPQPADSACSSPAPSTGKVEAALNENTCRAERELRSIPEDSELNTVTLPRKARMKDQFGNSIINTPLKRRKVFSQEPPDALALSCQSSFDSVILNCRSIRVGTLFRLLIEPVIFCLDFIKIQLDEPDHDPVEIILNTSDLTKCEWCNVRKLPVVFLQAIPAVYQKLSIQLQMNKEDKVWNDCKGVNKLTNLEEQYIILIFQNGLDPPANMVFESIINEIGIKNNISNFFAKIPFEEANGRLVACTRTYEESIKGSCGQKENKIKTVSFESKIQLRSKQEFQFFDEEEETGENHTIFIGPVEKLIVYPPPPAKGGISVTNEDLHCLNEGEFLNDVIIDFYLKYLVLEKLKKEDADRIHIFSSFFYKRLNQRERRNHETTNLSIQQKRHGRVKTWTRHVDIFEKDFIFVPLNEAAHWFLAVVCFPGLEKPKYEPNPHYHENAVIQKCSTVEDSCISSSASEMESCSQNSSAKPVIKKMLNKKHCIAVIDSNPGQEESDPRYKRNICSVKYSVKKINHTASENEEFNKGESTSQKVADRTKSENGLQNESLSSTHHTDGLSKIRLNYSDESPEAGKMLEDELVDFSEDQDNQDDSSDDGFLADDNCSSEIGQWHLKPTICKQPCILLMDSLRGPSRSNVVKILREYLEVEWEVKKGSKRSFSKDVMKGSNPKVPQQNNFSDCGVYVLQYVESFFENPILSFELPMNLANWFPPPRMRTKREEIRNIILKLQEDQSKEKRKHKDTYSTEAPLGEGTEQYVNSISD

[5] = biological target: T4, Sentrin-specific protease 8 (Homo sapiens, UniProt Q96LD8); assay type: functional;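 note: luminescence read-out of SENP8 inhibition, dose-response confirmation following an ultra-high-throughput screen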
T4 sequence (Q96LD8 whole entry): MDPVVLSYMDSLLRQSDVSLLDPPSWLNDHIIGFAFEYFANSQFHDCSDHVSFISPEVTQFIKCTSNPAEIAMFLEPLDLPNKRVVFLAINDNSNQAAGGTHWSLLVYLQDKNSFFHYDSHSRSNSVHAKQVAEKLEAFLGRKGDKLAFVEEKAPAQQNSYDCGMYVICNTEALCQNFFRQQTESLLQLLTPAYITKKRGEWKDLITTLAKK

[6] = biological target: T4, Sentrin-specific protease 8; assay: inhibition of human SENP8 cleavage activity – biochemical, luminescence, SAR follow-up (AID 504501); assay type: functional
Caspase-3 [7] = biological target: T1, Caspase-3; assay: SAR Analysis of small molecule inhibitors of Sentrin-specific proteases (SENPs) using a Caspase-3 Selectivity assay. [Related pubchem assays (depositor defined):AID2540, AID2599, AID434973, AID489001]; assay type: functional
[8] = biological target: T3, Sentrin-specific protease 6; assay: SAR Analysis of small molecule inhibitors of Sentrin-specific protease 6 (SENP6) using a Luminescent assay. [Related pubchem assays (depositor defined):AID2582, AID2599]; assay type: functional
[9] = biological target: T2, Sentrin-specific protease 7; assay: inhibition of human SENP7 cleavage activity – biochemical, luminescence, SAR follow-up (AID 504497); assay type: functional
P388/ADR = assay: cells; assay type: functional; conditions: Mus musculus
SN12K1 = assay: cells; assay type: functional; conditions: Homo sapiens
P388 = assay: cells; assay type: functional; conditions: Mus musculus
[10] = biological target: T5, Low molecular weight phosphotyrosine protein phosphatase (Homo sapiens, UniProt P24666); assay type: functional; conditions: read-out: IC50_Mean;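 note: Dose-response confirmation assay measuring inhibition of LMPTP enzyme activity by fluorescence intensity read-out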
T5 sequence (P24666 whole entry): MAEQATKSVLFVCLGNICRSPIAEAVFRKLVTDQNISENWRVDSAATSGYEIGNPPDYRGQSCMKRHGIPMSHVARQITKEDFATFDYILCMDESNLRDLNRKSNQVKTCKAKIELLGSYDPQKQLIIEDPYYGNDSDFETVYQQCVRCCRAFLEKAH

[11] = Trypanosoma cruzi growth suppression in host cells – NIH3T3 host cells, beta-gal luminescence, confirmation (AID 2044); assay type: functional, cell-based;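 note: intracellular parasites grown in NIH/3T3 mouse fibroblasts as host cells; luminescent beta-galactosidase reporter signal from transgenic T. cruzi replicating inside host cells; inhibitors lower the luminescence signal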
[12] = NIH3T3 cell viability loss – ATP luminescence, mouse fibroblasts, counter-screen, dose response (AID 2010); assay type: functional, cell-based;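 note: cells exposed to compound for about 90 hours before reading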
[13] = biological target: T6, Ubiquitin-conjugating enzyme E2 N (Homo sapiens, UniProt P61088); assay type: functional;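 note: Dose-response confirmation in a TR-FRET assay detecting UBC13-driven polyubiquitin chain formation, inhibition measured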
T6 sequence (P61088 whole entry): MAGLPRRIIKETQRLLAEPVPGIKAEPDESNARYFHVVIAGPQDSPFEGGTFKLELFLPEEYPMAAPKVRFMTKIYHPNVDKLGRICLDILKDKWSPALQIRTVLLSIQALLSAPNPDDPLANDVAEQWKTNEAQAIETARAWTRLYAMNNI

Melanocortin receptor 4 = Melanocortin receptor 4 (Homo sapiens, UniProt P32245); assay type: functional, cell-based;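 note: Cell-based assay with luminescence read-out, confirmatory dose-response testing for agonist activity of biased ligands at MC4R; human U2OS cells with tagged receptor and beta-arrestin; potency of agonists that increase receptor coupling to beta-arrestin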
Chain of Melanocortin receptor 4 (P32245 whole entry): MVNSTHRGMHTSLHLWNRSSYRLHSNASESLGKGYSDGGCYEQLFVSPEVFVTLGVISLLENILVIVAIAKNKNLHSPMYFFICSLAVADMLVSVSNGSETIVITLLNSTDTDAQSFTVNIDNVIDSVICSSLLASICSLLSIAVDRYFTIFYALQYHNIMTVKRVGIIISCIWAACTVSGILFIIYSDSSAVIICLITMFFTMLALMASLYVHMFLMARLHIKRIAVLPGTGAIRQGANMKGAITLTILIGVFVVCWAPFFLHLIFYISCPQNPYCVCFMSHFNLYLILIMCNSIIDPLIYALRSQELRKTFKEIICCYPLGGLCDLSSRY

[14] = biological target: T7, DNA repair protein RAD52 homolog (Homo sapiens, UniProt P43351); assay type: functional, biochemical
T7 sequence (P43351 whole entry): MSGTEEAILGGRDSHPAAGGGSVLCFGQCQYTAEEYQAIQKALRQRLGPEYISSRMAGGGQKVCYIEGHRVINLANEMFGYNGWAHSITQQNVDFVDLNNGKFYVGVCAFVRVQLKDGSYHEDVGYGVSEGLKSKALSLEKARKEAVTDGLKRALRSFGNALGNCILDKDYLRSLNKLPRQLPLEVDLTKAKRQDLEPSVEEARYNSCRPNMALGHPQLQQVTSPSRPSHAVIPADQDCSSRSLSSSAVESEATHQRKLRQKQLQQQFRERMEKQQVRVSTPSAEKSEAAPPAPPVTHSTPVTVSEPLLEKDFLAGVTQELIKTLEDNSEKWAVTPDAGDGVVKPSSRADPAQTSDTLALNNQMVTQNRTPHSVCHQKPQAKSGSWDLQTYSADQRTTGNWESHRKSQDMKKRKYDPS

[15] = blockers of HIV-1 envelope-mediated cell-cell fusion – cherry-pick, dose response (AID 652057); assay type: functional, cell-based
[16] = viability loss in CEM21 cells – cell-based, CellTiter-Glo luminescence, cherry-picked, cytotoxicity control for viral fusion inhibitor project, dose response (AID 652042); assay type: functional;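 note: potency for signal decrease meaning cytotoxicity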
[17] = blockers of HIV-1 ZM109 envelope-driven cell-cell fusion – HeLa effector, CEM target cells, luciferase, cherry-pick, dose response (AID 652058); assay type: functional, cell-based;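 note: luciferase signal from HIV-1 Env mediated cell-cell fusion of effector and target cells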
[18] = off-target signal loss in HeLa-CEM21 co-culture – HeLa F-luc CTL cells, cherry-picked, counter-screen for HIV-1 Env fusion inhibitor project, dose response (AID 652040); assay type: functional, cell-based;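 note: potency for signal decrease marking cytotoxic or nonspecific inhibition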
[19] = HIV-1 AD8 envelope cell-cell fusion blockers – cherry-pick, dose response (AID 652062); assay type: functional, cell-based;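 note: luciferase signal from cell-cell fusion driven by HIV-1 clade B AD8 Env; potency is for inhibitors of fusion seen as a drop in luminescence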
H9c2 = assay: cells; assay type: functional, cell-based; conditions: Rattus norvegicus, H9c2, Myocardium;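 note: confirmatory concentration-response retest of ultra-high-throughput screening hits for modulation of myocardial damage; cell death induced by hydrogen peroxide oxidative stress; compound pretreatment for 60 min then peroxide exposure for 2 h; potency is for protecting the cells against peroxide damage rather than for killing them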

| IC50 (Caspase-3 [7]) | IC50 [8] | IC50 [9] | SMILES | IC50 [6] | GI50 (P388/ADR) | GI50 (SN12K1) | GI50 (P388) | other results |
| --- | --- | --- | --- | --- | --- | --- | --- | --- |
| 7.01 µM (active) | 5.12 µM (active) | 2.09 µM (active) | CCc1ccc2oc(-c3ccc(NC(C)=O)cc3)nc2c1 | 5.46 µM (active) | – | – | – | CC50 [1]: 22.2 µM (active); IC50 (Caspase-3 [2]): 12.4 µM (active); IC50 [3]: 2.89 µM (active); IC50 [4]: 8.05 µM (active); IC50 [5]: 13.2 µM (active) |
| – | – | – | C/C(=C\c1ccccc1)C(=O)CCN1CCOCC1 | – | 5.73 µM (inactive) | 17.9 µM (inactive) | 4.78 µM (inactive) | – |
| – | – | – | CC(=O)Oc1ccc(C2COc3cc(OC(C)=O)c(OC(C)=O)cc3C2)cc1 (centres undefined) | – | 5.42 µM (inactive) | 13 µM (inactive) | 6 µM (inactive) | – |
| > 99 µM (inactive) | > 99 µM (inactive) | > 99 µM (inactive) | O=C(Nc1nc2ccc(NC(=O)c3n[nH]c4c3CCc3ccccc3-4)cc2s1)c1ccccc1 | > 99 µM (inactive) | – | – | – | – |
| > 99 µM (inactive) | > 99 µM (inactive) | > 99 µM (inactive) | O=C(/C=C/c1ccc(OC2CSC2)cc1)c1ccc(Cl)cc1 | > 99 µM (inactive) | – | – | – | – |
| – | – | – | O=c1c2ccccc2nc2sc(Nc3cccc(Cl)c3)nn12 | – | – | – | – | IC50 [10]: 14.5 µM (active) |
| – | – | – | O=c1[nH]c2ccccc2n1C1CCN(Cc2ccc(-c3nc4cc5[nH]cnc5cc4nc3-c3ccccc3)cc2)CC1 | – | – | – | – | IC50 [10]: 7.43 µM (active) |
| – | – | – | O=C(O)CC(NC(=O)CP(=O)(O)O)C(=O)O (centres undefined) | – | 77.1 µM (inactive) | 5.32 µM (inactive) | 127 µM (inactive) | – |
| – | – | – | N=C(N)Nc1nc(-c2ccccc2)c2cc(Cl)ccc2n1 | – | – | – | – | EC50 [11]: 0.382 µM (active); EC50 [12]: > 60 µM (not active); IC50 [13]: > 20 µM (inactive); EC50 (Melanocortin receptor 4): > 89.2 µM (inactive); AC50 [14]: 6.61 µM (active) |
| – | – | – | CSCSCC(CO)NC(=O)/C(C)=C\c1c(C)[nH]c(=O)[nH]c1=O (centres undefined) | – | > 250 µM (inactive) | > 250 µM (inactive) | > 250 µM (inactive) | – |
| – | – | – | CCOc1cc(CNCCc2c[nH]c3ccccc23)cc(Cl)c1OCC | – | – | – | – | CC50 [1]: 14.9 µM (active); EC50 (Melanocortin receptor 4): > 89.2 µM (inactive); AC50 [15]: 4.29 µM (active); AC50 [16]: 26.6 µM (active); AC50 [17]: 2.31 µM (active); AC50 [18]: 6.11 µM (active); AC50 [19]: 27.2 µM (active) |
| – | – | – | COc1cccc(-c2cnc3c(NC=O)cc(-c4cc(OC)c(OC)c(OC)c4)cn23)c1 | – | – | – | – | IC50 (H9c2): > 79 µM (inactive); EC50 (Melanocortin receptor 4): > 89.2 µM (inactive) |
| > 99 µM (inactive) | > 99 µM (inactive) | > 99 µM (inactive) | Fc1cc(C(F)(F)F)ccc1-c1nc(/C=C/c2ccccc2)no1 | > 99 µM (inactive) | – | – | – | – |

— ChEMBL document CHEMBL1201862, “PubChem BioAssay data set” (2004)
